Assay results reported in patent US20070129379A1 (priority 2005, published 2007).

Target: T1, HIV-integrase (Human immunodeficiency virus type 1 group M subtype B, UniProt P12497)
T1 construct: Recombinant integrase (0.26 ng) was incubated with the beads
Test: HIV-Integrase Inhibition Activity (SPA strand transfer assay)
Type: biochemical
Conditions: recombinant integrase, biotin labeled substrate DNA on SPA beads, P33 labeled target DNA
Procedure: HIV-Integrase Inhibition Activity. To evaluate in-vitro activity against HIV-integrase, 5 pmole of biotin labeled substrate DNA was bound to 100 μg of Streptavidin coated PVT SPA beads (Amersham Pharmacia Biotech). Recombinant integrase (0.26 ng) was incubated with the beads for 90 min at 37° C. Unbound enzyme was removed by washing the complex followed by addition of inhibitors and 0.1 fmol of P33 labeled target DNA. The reaction was stopped by adding EDTA to a final concentration of 10 mM. Samples were counted in TopCountNXT (Packard) and the CPM was used as a measure of integration. The reaction condition was as described in A. Engleman and R. Craige, J. Virol. 69, 5908-5911 (1995). The sequences of substrate and target DNA were described in Nucleic Acid Research 22, 1121-1122 (1994). Activity equal to A refers to a compound having IC50=0.002 to 0.10 μM while B and C denote compounds having IC50=0.1 to 1.0 μM and IC50≧1.0 μM respectively.

| SMILES | IC50 [nM] |
| --- | --- |
| COC(C)(C)c1nc(C(=O)NCc2ccc(F)cc2)c(O)c(=O)n1C [Example 1, N-(4-Fluorobenzyl)-5-hydroxy-2-(2-methoxypropan-2-yl)-1-methyl-6-oxo-1,6-dihydropyrimidine-4-carboxamide] | 2 to 100 |
| COC(C)(C)c1nc(C(=O)NCc2ccc(F)c(C)c2)c(O)c(=O)n1C [Example 2] | 2 to 100 |
| CC(C)(C)c1nc(O)c(O)c(C(=O)NCc2ccc(F)cc2)n1 [Example 3, 2-tert-Butyl-5-hydroxy-6-oxo-1,6-dihydro-pyrimidine-4-carboxylic acid 4-fluoro-benzylamide] | 2 to 100 |
| Cn1c(C(C)(C)C)nc(C(=O)NCc2ccc(F)cc2)c(O)c1=O [Example 4, 2-tert-Butyl-5-hydroxy-1-methyl-6-oxo-1,6-dihydro-pyrimidine-4-carboxylic acid 4-fluoro-benzylamide] | 2 to 100 |
| CSCCCCC(C)(C)c1nc(C(=O)NCc2ccc(F)cc2)c(O)c(=O)n1C [Example 5] | 2 to 100 |
| Cn1c(C2(C)CCCS2)nc(C(=O)NCc2ccc(F)cc2)c(O)c1=O (stereo not drawn) [Example 6, N-(4-Fluorobenzyl)-5-hydroxy-1-methyl-2-(2-methyl-tetrahydrothiophen-2-yl)-6-oxo-1,6-dihydropyrimidine-4-carboxamide] | 2 to 100 |
| Cn1c(C2(C)CCCS2)nc(C(=O)NCc2ccc(F)cc2-n2cncn2)c(O)c1=O (stereo not drawn) [Example 7, N-(4-Fluoro-2-(1H-1,2,4-triazol-1-yl)benzyl)-5-hydroxy-1-methyl-2-(2-methyl-tetrahydrothiophen-2-yl)-6-oxo-1,6-dihydropyrimidine-4-carboxamide] | 2 to 100 |
| Cn1c(C2(C)CCCS2)nc(C(=O)NCc2ccc(F)cc2S(C)(=O)=O)c(O)c1=O (stereo not drawn) [Example 8] | 2 to 100 |
| Cn1c(C2(C)CCCO2)nc(C(=O)NCc2ccc(F)cc2)c(O)c1=O (stereo not drawn) [Example 9] | 2 to 100 |
| Cn1c(C2(C)CCCO2)nc(C(=O)NCc2ccc(F)cc2-n2cncn2)c(O)c1=O (stereo not drawn) [Example 10] | 2 to 100 |
| Cn1c(C2(C)CCCO2)nc(C(=O)NCc2ccc(F)cc2S(C)(=O)=O)c(O)c1=O (stereo not drawn) [Example 11] | 2 to 100 |
| Cn1c(C2(OCCO)CCC2)nc(C(=O)NCc2ccc(F)cc2)c(O)c1=O [Example 12, 5-Hydroxy-2-[1-(2-hydroxy-ethoxy)-cyclobutyl]-1-methyl-6-oxo-1,6-dihydro-pyrimidine-4-carboxylic acid 4-fluoro-benzylamide] | 2 to 100 |
| Cn1c(C2(OCCO)CCC2)nc(C(=O)NCc2ccc(F)cc2-n2cncn2)c(O)c1=O [Example 13] | 2 to 100 |
| CSCCOC1(c2nc(C(=O)NCc3ccc(F)cc3-n3cncn3)c(O)c(=O)n2C)CCC1 [Example 14, N-(4-Fluoro-2-(1H-1,2,4-triazol-1-yl)benzyl)-5-hydroxy-1-methyl-2-(1-(2-(methylthio)-ethoxy)cyclobutyl)-6-oxo-1,6-dihydropyrimidine-4-carboxamide] | 2 to 100 |
| COCCOC1(c2nc(C(=O)NCc3ccc(F)cc3)c(O)c(=O)n2C)CCC1 [Example 15, N-(4-Fluorobenzyl)-5-hydroxy-2-(1-(2-methoxyethoxy)cyclobutyl)-1-methyl-6-oxo-1,6-dihydropyrimidine-4-carboxamide] | 2 to 100 |
| COCCOC1(c2nc(C(=O)NCc3ccc(F)cc3-n3cncn3)c(O)c(=O)n2C)CCC1 [Example 16, N-(4-Fluoro-2-(1H-1,2,4-triazol-1-yl)benzyl)-5-hydroxy-2-(1-(2-methoxyethoxy)cyclobut-yl)-1-methyl-6-oxo-1,6-dihydropyrimidine-4-carboxamide] | 2 to 100 |
| COCCOC1(c2nc(C(=O)NCc3ccc(F)cc3S(C)(=O)=O)c(O)c(=O)n2C)CCC1 [Example 17, N-(4-Fluoro-2-(methylsulfonyl)benzyl)-5-hydroxy-2-(1-(2-methoxyethoxy)cyclobutyl)-1-methyl-6-oxo-1,6-dihydropyrimidine-4-carboxamide] | 2 to 100 |
| COCCOC1(c2nc(C(=O)NCc3ccc(F)cc3S(=O)(=O)N(C)C)c(O)c(=O)n2C)CCC1 [Example 18] | 2 to 100 |
